{
  "source": "ChEMBL document CHEMBL1201862",
  "about": "“PubChem BioAssay data set” (2004)",
  "assay_in_all_cases": "DTP human tumour cell line panel, 48 h",
  "key": {"NCI-H23": {"tested_on": "NCI-H23"}, "HCT-116": {"tested_on": "HCT-116"}, "TK-10": {"tested_on": "TK-10"}, "U-251": {"tested_on": "U-251"}, "RPMI-8226": {"tested_on": "RPMI-8226"}, "HCT-15": {"tested_on": "HCT-15"}, "A498": {"tested_on": "A498"}, "OVCAR-3": {"tested_on": "OVCAR-3"}, "T47D": {"tested_on": "T47D"}, "UO-31": {"tested_on": "UO-31"}, "SW-620": {"tested_on": "SW-620"}, "COLO 205": {"tested_on": "COLO 205"}, "HOP-62": {"tested_on": "HOP-62"}, "CAKI-1": {"tested_on": "CAKI-1"}, "BT-549": {"tested_on": "BT-549"}, "SN12C": {"tested_on": "SN12C"}, "KM12": {"tested_on": "KM12"}, "MDA-MB-231": {"tested_on": "MDA-MB-231"}, "SK-MEL-28": {"tested_on": "SK-MEL-28"}, "LOX IMVI": {"tested_on": "LOX IMVI"}, "HOP-92": {"tested_on": "HOP-92"}, "HT-29": {"tested_on": "HT-29"}, "SK-MEL-5": {"tested_on": "SK-MEL-5"}, "DU-145": {"tested_on": "DU-145"}, "SF-268": {"tested_on": "SF-268"}, "OVCAR-5": {"tested_on": "OVCAR-5"}, "NCI-H522": {"tested_on": "NCI-H522"}, "SK-MEL-2": {"tested_on": "SK-MEL-2"}, "MDA-N": {"tested_on": "MDA-N"}, "NCI-H460": {"tested_on": "NCI-H460"}, "MDA-MB-435": {"tested_on": "MDA-MB-435"}, "K562": {"tested_on": "K562"}, "UACC-257": {"tested_on": "UACC-257"}, "UACC-62": {"tested_on": "UACC-62"}, "NCI/ADR-RES": {"tested_on": "NCI/ADR-RES"}, "HCC 2998": {"tested_on": "HCC 2998"}, "786-0": {"tested_on": "786-0"}, "ACHN": {"tested_on": "ACHN"}, "A549": {"tested_on": "A549"}, "IGROV-1": {"tested_on": "IGROV-1"}, "Hs-578T": {"tested_on": "Hs-578T"}, "SNB-19": {"tested_on": "SNB-19"}, "OVCAR-8": {"tested_on": "OVCAR-8"}, "NCI-H226": {"tested_on": "NCI-H226"}, "SNB-75": {"tested_on": "SNB-75"}, "M14": {"tested_on": "M14"}, "OVCAR-4": {"tested_on": "OVCAR-4"}, "Malme-3M": {"tested_on": "Malme-3M"}, "PC-3": {"tested_on": "PC-3"}},
  "note": "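Five compound concentrations were applied to cells in 96-well plates for 48 hours; endpoints were derived by simple linear interpolation of the resulting dose-response curve. Abbreviation: GI50, concentration required for 50% inhibition of growth.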 Activity calls are given as the source filed them. Cut-off read from the data, not from the text of the source: active = GI50 up to about 1.1 µM and inactive = higher.",
  "data": [
    {"smiles": "Cc1ccc2c(c1)-c1nc(N)c(C#N)c(-c3ccccc3)c1CCS2(=O)=O", "values": [
      {"measurement": "GI50", "setting": "NCI-H23", "value": "87.9 µM (inactive)"},
      {"measurement": "GI50", "setting": "HCT-116", "value": "> 100 µM (inactive)"},
      {"measurement": "GI50", "setting": "TK-10", "value": "23.7 µM (inactive)"},
      {"measurement": "GI50", "setting": "U-251", "value": "32.5 µM (inactive)"},
      {"measurement": "GI50", "setting": "RPMI-8226", "value": "> 100 µM (inactive)"},
      {"measurement": "GI50", "setting": "HCT-15", "value": 44.1, "unit": "µM"},
      {"measurement": "GI50", "setting": "A498", "value": "28.8 µM (inactive)"},
      {"measurement": "GI50", "setting": "OVCAR-3", "value": "29.5 µM (inactive)"},
      {"measurement": "GI50", "setting": "T47D", "value": "> 100 µM (inactive)"},
      {"measurement": "GI50", "setting": "UO-31", "value": "> 100 µM (inactive)"},
      {"measurement": "GI50", "setting": "SW-620", "value": "> 100 µM (inactive)"},
      {"measurement": "GI50", "setting": "COLO 205", "value": "> 100 µM (inactive)"},
      {"measurement": "GI50", "setting": "HOP-62", "value": "30.5 µM (inactive)"},
      {"measurement": "GI50", "setting": "CAKI-1", "value": "49.3 µM (inactive)"},
      {"measurement": "GI50", "setting": "BT-549", "value": "36.4 µM (inactive)"},
      {"measurement": "GI50", "setting": "SN12C", "value": "41.4 µM (inactive)"},
      {"measurement": "GI50", "setting": "KM12", "value": "> 100 µM (inactive)"},
      {"measurement": "GI50", "setting": "MDA-MB-231", "value": "37 µM (inactive)"},
      {"measurement": "GI50", "setting": "SK-MEL-28", "value": "> 100 µM (inactive)"},
      {"measurement": "GI50", "setting": "LOX IMVI", "value": "> 100 µM (inactive)"},
      {"measurement": "GI50", "setting": "HOP-92", "value": "26.4 µM (inactive)"},
      {"measurement": "GI50", "setting": "HT-29", "value": "> 100 µM (inactive)"},
      {"measurement": "GI50", "setting": "SK-MEL-5", "value": "> 100 µM (inactive)"},
      {"measurement": "GI50", "setting": "DU-145", "value": "65.2 µM (inactive)"},
      {"measurement": "GI50", "setting": "SF-268", "value": "46.5 µM (inactive)"},
      {"measurement": "GI50", "setting": "OVCAR-5", "value": "55 µM (inactive)"},
      {"measurement": "GI50", "setting": "NCI-H522", "value": "39.2 µM (inactive)"},
      {"measurement": "GI50", "setting": "SK-MEL-2", "value": "45.8 µM (inactive)"},
      {"measurement": "GI50", "setting": "MDA-N", "value": "> 100 µM (inactive)"},
      {"measurement": "GI50", "setting": "NCI-H460", "value": "75.2 µM (inactive)"},
      {"measurement": "GI50", "setting": "MDA-MB-435", "value": "> 100 µM (inactive)"},
      {"measurement": "GI50", "setting": "K562", "value": "> 100 µM (inactive)"},
      {"measurement": "GI50", "setting": "UACC-257", "value": "44.9 µM (inactive)"},
      {"measurement": "GI50", "setting": "UACC-62", "value": "49.7 µM (inactive)"},
      {"measurement": "GI50", "setting": "NCI/ADR-RES", "value": "38.5 µM (inactive)"},
      {"measurement": "GI50", "setting": "HCC 2998", "value": "> 100 µM (inactive)"},
      {"measurement": "GI50", "setting": "786-0", "value": "19 µM (inactive)"},
      {"measurement": "GI50", "setting": "ACHN", "value": "38.5 µM (inactive)"},
      {"measurement": "GI50", "setting": "A549", "value": "55 µM (inactive)"},
      {"measurement": "GI50", "setting": "IGROV-1", "value": "31.3 µM (inactive)"},
      {"measurement": "GI50", "setting": "Hs-578T", "value": "20.8 µM (inactive)"},
      {"measurement": "GI50", "setting": "SNB-19", "value": "23.6 µM (inactive)"},
      {"measurement": "GI50", "setting": "OVCAR-8", "value": "23.1 µM (inactive)"},
      {"measurement": "GI50", "setting": "NCI-H226", "value": "24.3 µM (inactive)"},
      {"measurement": "GI50", "setting": "SNB-75", "value": "24.4 µM (inactive)"},
      {"measurement": "GI50", "setting": "M14", "value": "> 100 µM (inactive)"},
      {"measurement": "GI50", "setting": "OVCAR-4", "value": "16.7 µM (inactive)"},
      {"measurement": "GI50", "setting": "Malme-3M", "value": "23.8 µM (inactive)"},
      {"measurement": "GI50", "setting": "PC-3", "value": "49.2 µM (inactive)"}
    ]}
  ]
}
